Key:
[1] = molecular target: M. tuberculosis topoI (MttopoI) (Mycobacterium tuberculosis, UniProt P9WG49); assay: DNA relaxation inhibition assay; format: biochemical; details: assay conditions for MttopoI not stated; data not shown
[2] = molecular target: T1, Escherichia coli topoisomerase I (EctopoI) (Escherichia coli, UniProt P06612); assay: SPR; format: binding; details: PBS-P, pH 7.4, 1% DMSO; no DNA; average of three experimental replicates
T1 sequence (P06612 1-865): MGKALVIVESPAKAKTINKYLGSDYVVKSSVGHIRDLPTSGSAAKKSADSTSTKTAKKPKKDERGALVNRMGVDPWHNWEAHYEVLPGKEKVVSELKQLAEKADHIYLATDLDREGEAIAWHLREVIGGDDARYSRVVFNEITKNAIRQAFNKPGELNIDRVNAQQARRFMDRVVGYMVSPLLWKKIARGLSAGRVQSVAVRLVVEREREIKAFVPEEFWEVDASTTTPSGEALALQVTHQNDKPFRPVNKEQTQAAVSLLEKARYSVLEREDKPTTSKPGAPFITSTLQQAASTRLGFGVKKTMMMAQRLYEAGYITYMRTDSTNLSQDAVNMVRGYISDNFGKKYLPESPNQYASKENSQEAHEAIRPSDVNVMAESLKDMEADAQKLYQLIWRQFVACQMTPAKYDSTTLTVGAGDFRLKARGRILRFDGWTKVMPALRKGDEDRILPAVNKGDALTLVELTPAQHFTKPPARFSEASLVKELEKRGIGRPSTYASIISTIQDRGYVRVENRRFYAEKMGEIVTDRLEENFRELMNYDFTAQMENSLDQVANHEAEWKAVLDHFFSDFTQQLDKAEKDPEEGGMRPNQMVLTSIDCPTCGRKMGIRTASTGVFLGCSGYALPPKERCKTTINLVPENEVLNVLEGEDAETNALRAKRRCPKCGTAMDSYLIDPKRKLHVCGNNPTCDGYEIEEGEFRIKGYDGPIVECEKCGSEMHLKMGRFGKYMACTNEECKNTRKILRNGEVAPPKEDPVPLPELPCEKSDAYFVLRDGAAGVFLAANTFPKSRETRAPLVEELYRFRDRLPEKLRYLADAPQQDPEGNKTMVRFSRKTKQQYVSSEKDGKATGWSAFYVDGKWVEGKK

Chain of M. tuberculosis topoI (MttopoI) (P9WG49 whole entry): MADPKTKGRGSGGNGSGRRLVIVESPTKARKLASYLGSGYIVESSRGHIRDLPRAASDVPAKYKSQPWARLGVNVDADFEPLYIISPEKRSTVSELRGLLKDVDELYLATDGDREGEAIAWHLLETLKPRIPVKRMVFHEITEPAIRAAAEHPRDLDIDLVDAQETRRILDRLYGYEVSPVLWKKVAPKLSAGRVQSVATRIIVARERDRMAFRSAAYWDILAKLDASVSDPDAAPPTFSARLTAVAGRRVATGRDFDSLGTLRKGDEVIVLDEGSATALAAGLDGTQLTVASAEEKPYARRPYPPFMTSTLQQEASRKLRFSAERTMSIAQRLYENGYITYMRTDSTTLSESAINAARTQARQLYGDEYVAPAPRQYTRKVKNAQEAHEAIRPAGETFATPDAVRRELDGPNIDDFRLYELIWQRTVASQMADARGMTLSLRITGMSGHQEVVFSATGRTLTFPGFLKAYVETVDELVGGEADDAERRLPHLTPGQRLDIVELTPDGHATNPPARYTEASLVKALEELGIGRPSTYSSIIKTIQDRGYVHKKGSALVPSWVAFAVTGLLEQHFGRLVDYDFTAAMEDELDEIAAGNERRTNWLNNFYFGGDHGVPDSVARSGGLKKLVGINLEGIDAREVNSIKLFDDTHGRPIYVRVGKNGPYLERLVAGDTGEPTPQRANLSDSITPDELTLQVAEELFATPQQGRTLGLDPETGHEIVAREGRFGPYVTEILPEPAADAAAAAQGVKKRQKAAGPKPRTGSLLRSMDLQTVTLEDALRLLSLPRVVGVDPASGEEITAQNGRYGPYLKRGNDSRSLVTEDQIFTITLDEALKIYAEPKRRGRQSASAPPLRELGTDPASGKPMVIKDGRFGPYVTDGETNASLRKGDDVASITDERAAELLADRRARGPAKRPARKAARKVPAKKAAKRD

O=C(Nc1ccc(Sc2ccc(N=Nc3c(O)c(S(=O)(=O)O)cc4cc(S(=O)(=O)O)ccc34)cc2)cc1)c1ccc(N=Nc2c(O)ccc3c(S(=O)(=O)O)cc(S(=O)(=O)O)cc23)cc1 [NSC76027]
IC50 [1]: ~3000 nM | Kd [2]: 79 ± 8 nM
